One assay has as its system Aiolos and Ikaros. Description: Aiolos and Ikaros degradation by immunoblotting in MM.1S cells. It counts as cell-based, human. On the procedure:
To this end, the MM.1S cell line was cultured in an RPMI medium (Corning, MD, USA) supplemented with 10% fetal bovine serum (Corning, MD, USA), 100 U/ml of penicillin (Corning, MD, USA), and 100 μg/ml of streptomycin (Corning, MD, USA) at 37° C. in a 5% CO2 incubator. […] The cells were disrupted by adding a RIPA buffer containing a protease inhibitor cocktail (Thermo Fisher Scientific) and centrifuged at 14,000 rpm for 15 minutes at 4° C. to obtain a cell extract. Equal amounts of the cell extract were loaded, and proteins were separated through SDS-PAGE and then transferred to a PVDF membrane. The protein-transferred membrane was blocked using skim milk, incubated with a primary antibody for 3 hours at room temperature, and then incubated with an HRP-conjugated secondary antibody for 1 hour at room temperature. The resulting product was washed with TBS-T three times between steps. Detection was performed using a chemoluminescence reagent (Thermo Fisher Scientific), and confirmed using Chemidoc (iBright CL1500, Invitrogen, CA, USA). Aiolos (#15103), Ikaros (#9034) and GAPDH (#2118S) antibodies used as primary antibodies and a secondary antibody were purchased from Cell Signaling Technology (Danvers, MA, USA).
Additionally, the expression of Aiolos and Ikaros, mediated by 3-MP, was confirmed over time. […]
On the technique in general: A western blot detects proteins with antibodies after separation by electrophoresis.

Assay [1] deals with iNOS and COX-2. In words: iNOS and COX-2 expression in LPS-stimulated RAW264.7 cells (immunoblotting). It counts as cell-based, mouse. The note with it: RAW264.7 cells, 3.33, 10 or 30 μM, 60 ng/ml LPS, 24 hours. The method, then:
To confirm an oxidative stress suppression effect, the expression levels of iNOS and COX-2 were confirmed.
To this end, the RAW264.7 cell line, which is a mouse macrophage cell line, was purchased from the Korea Cell Line Bank (KCLB, Korea) and used, and cultured in a DMEM medium (Corning, MD, USA) supplemented with 10% fetal bovine serum (Corning, MD, USA), 100 U/ml of penicillin (Corning, MD, USA), and 100 μg/ml of streptomycin (Corning, MD, USA) at 37° C. in a 5% CO2 incubator.
After 1 hour, the cells were stimulated by treatment with 60 ng/ml of LPS, and further cultured for 24 hours. The cells were disrupted by adding a RIPA buffer containing a protease inhibitor cocktail (Thermo Fisher Scientific) and centrifuged at 14,000 rpm for 15 minutes at 4° C. to obtain a cell extract. Equal amounts of the cell extract were loaded, and proteins were separated through SDS-PAGE and then transferred to a PVDF film. The protein-transferred membrane was blocked using skim milk, incubated with a primary antibody for 3 hours at room temperature, and then incubated with an HRP-conjugated secondary antibody for 1 hour at room temperature. The resulting product was washed with TBS-T three times between steps. […]

Assay [2] has as its system iNOS and COX-2. Description: iNOS and COX-2 protein expression in LPS-stimulated BV-2 cells (immunoblotting). It counts as cell-based, mouse. The note with it: BV-2 cells, 3.33, 10 or 30 μM, 1 μg/mL LPS, 24 hours. On the procedure:
To further confirm the oxidative stress suppression effect, the content of nitrite released due to an inflammatory response and the expression levels of iNOS, which is an enzyme that produces nitric oxide, and COX-2, which is cyclooxygenase-2, were determined in mouse microglial cells (BV-2, ATCC, Manassas, VA, USA).
To determine the content of nitrite and the protein expression levels of iNOS and COX-2, BV-2 was seeded in a 12-well plate (Corning, MD, USA) at 1.5×10^5 cells/well, and cultured using a DMEM medium (Corning, MD, USA) containing 10% fetal bovine serum (Corning, MD, USA) and 100 U/ml of penicillin/streptomycin (Corning, MD, USA) at 37° C. in a 5% CO2 incubator for one day for stabilization. […] 1 μg/mL of LPS (Sigma, USA) was added to all experimental groups excluding the non-inflammation-induced group and allowed to react at 37° C. in a 5% CO2 incubator for 24 hours.
The cells from which the cell culture solution was harvested were disrupted by adding a RIPA buffer containing a protease inhibitor cocktail (Thermo Fisher Scientific), and centrifuged at 14,000 rpm for 15 minutes at 4° C. to obtain a cell extract. Equal amounts of the cell extract were loaded, and proteins were separated through SDS-PAGE and then transferred to a PVDF membrane. […]

The test system of assay [3] is mouse model with Parkinson's disease induced by MPTP administration. Description: Grip strength test in MPTP-induced Parkinson's disease mouse model. The note with it: MPTP mice. Format: in vivo. The method, then:
To cause the disease, mice in the G2, G3, G4, and G5 groups were administered MPTP dissolved in saline via an intraperitoneal route at 2-hour intervals four times a day (20 mg/kg/time), while the G1 group received the same amount of saline.
A grip strength test was performed on day 6 of the test. When a mouse put on a grip strength measuring device (SLD-5FGN, Duratool, China) pulled a net of the device, the measuring device automatically measured the animal's grip strength and expressed it in grams. The average value was measured through five tests per individual.

Molecules are shown by their SMILES.

For `Nc1cccc2c1C(=S)N(C1CCC(=O)NC1=O)C2=O` (stereo not drawn) [3-MP, 3-thiopomalidomide], in the assay with Aiolos and Ikaros (10 μM, 1, 4, 8, 12 or 24 hours), the “expression of Aiolos and Ikaros over time” value is “does not reduce the expression of Aiolos and Ikaros”. In the assay on Aiolos and Ikaros (0.000128-10 μM, 4 hours), the “expression of Aiolos and Ikaros” value is “does not reduce the expression of Aiolos and Ikaros”. Further, in the assay with iNOS and COX-2 [1], the “expression of iNOS and COX-2 (protein)” value was “inhibit the expression of iNOS and COX-2”. Further, the “expression of oxidative stress-associated proteins (iNOS and COX-2)” value in the assay on iNOS and COX-2 [2] is on record as “effectively reduced”. Further, the grip strength result in assay [3] (oral, 90 mg/kg) is “recovered to a level similar to that of the vehicle administration group”; in assay [3] (oral, 10, 30, 90 mg/kg/day, versus MPTP group), “increased in a concentration-dependent manner”.

The values are drawn from patent US20250161286A1 (AEVIS BIO, INC., priority 2022, published 2025).
